Laboratory results as given in patent US4374249A, “[4R]-3-(ω-Aroylpropionyl)-4-thiazolidinecarboxylic acids and esters” (American Cyanamid Company, priority 1980, dated 1983).

Molecular target: T1, angiotensin converting enzyme (ACE) (Oryctolagus cuniculus, UniProt P12822)
T1 construct: The ACE was extracted from rabbit lung acetane powder; tissue Pel-Freez, Biol. Inc; host or cells: rabbit lung acetone powder, 40,000 g supernatant used as crude extract
T1 sequence (P12822 34-1310): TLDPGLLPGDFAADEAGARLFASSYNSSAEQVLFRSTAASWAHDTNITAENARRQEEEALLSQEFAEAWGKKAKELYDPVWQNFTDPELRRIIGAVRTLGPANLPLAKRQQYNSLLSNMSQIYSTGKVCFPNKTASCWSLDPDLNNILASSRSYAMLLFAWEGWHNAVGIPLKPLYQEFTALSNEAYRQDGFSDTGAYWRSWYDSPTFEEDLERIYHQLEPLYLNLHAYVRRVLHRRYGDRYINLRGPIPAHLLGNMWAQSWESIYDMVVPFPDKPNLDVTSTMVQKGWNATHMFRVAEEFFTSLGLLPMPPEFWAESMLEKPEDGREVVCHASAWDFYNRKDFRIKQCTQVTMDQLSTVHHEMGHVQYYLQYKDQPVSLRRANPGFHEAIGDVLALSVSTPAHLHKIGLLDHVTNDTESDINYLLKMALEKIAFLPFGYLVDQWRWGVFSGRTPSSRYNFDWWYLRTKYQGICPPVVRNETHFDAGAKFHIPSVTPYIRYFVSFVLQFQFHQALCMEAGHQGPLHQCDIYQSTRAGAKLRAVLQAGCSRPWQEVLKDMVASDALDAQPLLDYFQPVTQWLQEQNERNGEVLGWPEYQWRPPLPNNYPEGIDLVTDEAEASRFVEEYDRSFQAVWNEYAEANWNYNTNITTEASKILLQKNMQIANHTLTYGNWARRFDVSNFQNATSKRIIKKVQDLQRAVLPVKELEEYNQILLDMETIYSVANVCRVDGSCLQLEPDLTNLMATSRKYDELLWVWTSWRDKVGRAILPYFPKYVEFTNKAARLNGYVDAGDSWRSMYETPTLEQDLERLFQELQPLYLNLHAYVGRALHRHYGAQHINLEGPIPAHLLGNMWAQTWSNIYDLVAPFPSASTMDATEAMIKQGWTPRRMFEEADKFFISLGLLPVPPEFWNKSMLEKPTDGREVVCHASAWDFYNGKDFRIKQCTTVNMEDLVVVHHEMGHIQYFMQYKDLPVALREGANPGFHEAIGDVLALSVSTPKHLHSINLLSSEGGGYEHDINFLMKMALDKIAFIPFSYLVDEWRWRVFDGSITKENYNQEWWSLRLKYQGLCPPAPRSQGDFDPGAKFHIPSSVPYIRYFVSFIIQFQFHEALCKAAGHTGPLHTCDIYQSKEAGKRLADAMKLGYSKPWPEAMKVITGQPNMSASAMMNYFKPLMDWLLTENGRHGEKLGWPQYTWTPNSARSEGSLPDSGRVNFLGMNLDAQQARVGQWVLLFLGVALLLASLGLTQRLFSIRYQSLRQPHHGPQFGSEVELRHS
Assay: Spectrophotometric Assay for Angiotensin Converting Enzyme Inhibitors (in vitro inhibition of ACE, benzoyl-glycyl-histidyl-leucine substrate)
Type: biochemical
Settings: crude ACE extract from rabbit lung; 30 minutes at 37° C.; hippuric acid absorbance at 228 nm
Experimental: Spectrophotometric Assay for Angiotensin Converting Enzyme Inhibitors
The in vitro activity for inhibition of the angiotensin converting enzyme (ACE) was measured by the method of Cushman, D. W. and Cheung, H. S., Biochem. Pharmacol., 20, 1637-1648 (1971), using benzoyl-glycyl-histidyl-leucine as the substrate. The reaction mixture consisted of 50 μl. of potassium phosphate (500 mM., […]), 30 μl. of sodium chloride (2500 mM.), 25 μl. of substrate (50 mM.), 30 to 50 μl. of the crude extract of ACE, 10 μl. of test compound (2.5 mM.) or vehicle and a suitable amount of distilled water to give a total volume of 250 μl. This reaction mixture was incubated for 30 minutes at 37° C. and the reaction was then terminated by the addition of 250 μl. of 1 N hydrochloric acid. The hippuric acid was then extracted with 1.5 ml. of ethyl acetate by vortex mixing for 15 seconds. After centrifugation, one ml. of the ethyl acetate layer was pipetted into a new tube and evaporated to dryness. The extracted hippuric acid was then dissolved in one ml. of water and the amount of this acid was then measured by its absorbance at 228 nm. The ACE was extracted from rabbit lung acetane powder (Pel-Freez, Biol. Inc.) by blending 5 g. of the powder in 50 ml. of phosphate buffer (50 mM., pH 8.3) and then centrifuging at 40,000 g for 40 minutes. The supernatant was then kept at 5° C. and used as the enzyme source. The activity of the ACE inhibitor was calculated as the percent inhibition of ACE activity compared to the control value of that particular assay. A full dose-response inhibitory curve is then performed to determine the IC50 value which may be defined as the molar concentration of a compound that will inhibit ACE activity by 50%.

Row | IC50 [µM] | Structure (SMILES)
1 | 0.067 | CC(=O)SC(C(=O)c1ccccc1)[C@@H](C)C(=O)N1CSC[C@H]1C(=O)O (stereo partly drawn) [[4R-(4R*,2'S*)]-3-(3-Acetylthio-3-benzoyl-2-methylpropionyl)-4-thiazolidinecarboxylic acid]
2 | 8.4 | CC(=O)SC(CC(=O)c1ccccc1)C(=O)N1CSC[C@H]1C(=O)O (stereo partly drawn) [[4R]-3-(2-Acetylthio-3-benzoylpropionyl)-4-thiazolidinecarboxylic acid]
3 | 16.8 | CC(=O)SC(CC(=O)N1CSC[C@H]1C(=O)OCc1c(C)cc(C)cc1C)C(=O)c1ccc(F)cc1 (stereo partly drawn) [[4R]-3-[3-Acetylthio-3-(4-fluorobenzoyl)propionyl]-4-thiazolidinecarboxylicacid, 2,4,6-trimethylbenzyl ester]
